# According to US7235679B2, “Crystals of a vitamin D derivative and a method for the preparation thereof” (Chugai Seiyaku Kabushiki Kaisha, priority 1996, dated 2007):
# Assay: Stability test of ED-71: purity measurement using reverse phase HPLC
# Type: physicochemical
# Conditions: for Purity Measurement Using Reverse Phase HPLC, ED-71 peak / Purity Measurement Using Reverse Phase HPLC, Other peaks / Purity Measurement Using Reverse Phase HPLC, Pre Form peak: 265 nm
# Description: Amorphous and crystalline ED-71 compounds were tested for stability at 10, 25 and […]. To estimate the stability, HPLC quantitative assay and absorbance and purity measurements were utilized. The purity was expressed as peak area ratio in percentage in HPLC (% P.A.R.). The test was carried out by using the following procedures:
# About 2 mg portions of each of the amorphous and crystalline samples are precisely weighed into transparent 10 ml test tubes each having screw cap, individually.
# The test tubes are purged with argon using a vacuum desiccator and a glove box. This purging procedure is not applied to the test tubes indicated as “1 M (air)” in the tables below.
# The test tubes in groups are fixed in thermostatic baths which are respectively controlled at the above temperatures and allowed to stand in the dark. After one (1 W) or two (2 W) weeks or one month (1 M), the test tubes are removed from the baths and subjected to the following assay and measurements:
# HPLC is carried out using 25 μl of the sample solution as prepared in “HPLC quantitative assay” above. • HPLC conditions used: • Column: Inertsil ODS-2 (5×250 mm) • Mobile phase: acetonitrile/water mixture (55/45) • Flow rate: 1 ml/min • Detection: at UV 265 and 220 nm.
smiles,measurement,setting,value
"C=C1/C(=C\C=C2/CCC[C@]3(C)[C@@H]([C@H](C)CCCC(C)(C)O)CC[C@@H]23)C[C@@H](O)[C@@H](OCCCO)[C@@H]1O [Crys., 1α,25-dihydroxy-2β-(3-hydroxypropoxy)vitamin D3]","220 nm (%), ED-71 peak","10° C., 1 M (air), dark",97.09%
same,"220 nm (%), Other peaks","10° C., 1 M (air), dark",1.82%
same,"220 nm (%), Pre Form peak","10° C., 1 M (air), dark",1.09%
same,"220 nm (%), ED-71 peak","10° C., 1 M, argon, dark",97.44%
same,"220 nm (%), Other peaks","10° C., 1 M, argon, dark",1.51%
same,"220 nm (%), Pre Form peak","10° C., 1 M, argon, dark",1.05%
same,"220 nm (%), ED-71 peak","10° C., 2 W, argon, dark",97.91%
same,"220 nm (%), Other peaks","10° C., 2 W, argon, dark",1.09%
same,"220 nm (%), Pre Form peak","10° C., 2 W, argon, dark",1.01%
same,"220 nm (%), ED-71 peak","10° C., time 0",97.44%
same,"220 nm (%), Other peaks","10° C., time 0",2.04%
same,"220 nm (%), Pre Form peak","10° C., time 0",0.52%
same,"220 nm (%), ED-71 peak","25° C., 1 W, argon, dark",98.17%
same,"220 nm (%), Other peaks","25° C., 1 W, argon, dark",1.40%
same,"220 nm (%), Pre Form peak","25° C., 1 W, argon, dark",0.44%
same,"220 nm (%), ED-71 peak","25° C., 2 W, argon, dark",97.56%
same,"220 nm (%), Other peaks","25° C., 2 W, argon, dark",1.43%
same,"220 nm (%), Pre Form peak","25° C., 2 W, argon, dark",1.01%
same,"220 nm (%), ED-71 peak","25° C., time 0",97.44%
same,"220 nm (%), Other peaks","25° C., time 0",2.04%
same,"220 nm (%), Pre Form peak","25° C., time 0",0.52%
same,"220 nm (%), ED-71 peak","40° C., 1 W, argon, dark",98.18%
same,"220 nm (%), Other peaks","40° C., 1 W, argon, dark",1.35%
same,"220 nm (%), Pre Form peak","40° C., 1 W, argon, dark",0.47%
same,"220 nm (%), ED-71 peak","40° C., 2 W, argon, dark",97.65%
same,"220 nm (%), Other peaks","40° C., 2 W, argon, dark",1.33%
same,"220 nm (%), Pre Form peak","40° C., 2 W, argon, dark",1.02%
same,"220 nm (%), ED-71 peak","40° C., time 0",97.44%
same,"220 nm (%), Other peaks","40° C., time 0",2.04%
same,"220 nm (%), Pre Form peak","40° C., time 0",0.52%
same,"Purity Measurement Using Reverse Phase HPLC, ED-71 peak","10° C., 1 M (air), dark",98.72 % P.A.R
same,"Purity Measurement Using Reverse Phase HPLC, Other peaks","10° C., 1 M (air), dark",0.42 % P.A.R
same,"Purity Measurement Using Reverse Phase HPLC, Pre Form peak","10° C., 1 M (air), dark",0.86 % P.A.R
same,"Purity Measurement Using Reverse Phase HPLC, ED-71 peak","10° C., 1 M, argon, dark",98.77 % P.A.R
same,"Purity Measurement Using Reverse Phase HPLC, Other peaks","10° C., 1 M, argon, dark",0.37 % P.A.R
same,"Purity Measurement Using Reverse Phase HPLC, Pre Form peak","10° C., 1 M, argon, dark",0.86 % P.A.R
same,"Purity Measurement Using Reverse Phase HPLC, ED-71 peak","10° C., 2 W, argon, dark",98.84 % P.A.R
same,"Purity Measurement Using Reverse Phase HPLC, Other peaks","10° C., 2 W, argon, dark",0.32 % P.A.R
same,"Purity Measurement Using Reverse Phase HPLC, Pre Form peak","10° C., 2 W, argon, dark",0.83 % P.A.R
same,"Purity Measurement Using Reverse Phase HPLC, ED-71 peak","10° C., time 0",99.04 % P.A.R
same,"Purity Measurement Using Reverse Phase HPLC, Other peaks","10° C., time 0",0.60 % P.A.R
same,"Purity Measurement Using Reverse Phase HPLC, Pre Form peak","10° C., time 0",0.36 % P.A.R
same,"Purity Measurement Using Reverse Phase HPLC, ED-71 peak","25° C., 1 W, argon, dark",99.35 % P.A.R
same,"Purity Measurement Using Reverse Phase HPLC, Other peaks","25° C., 1 W, argon, dark",0.38 % P.A.R
same,"Purity Measurement Using Reverse Phase HPLC, Pre Form peak","25° C., 1 W, argon, dark",0.28 % P.A.R
same,"Purity Measurement Using Reverse Phase HPLC, ED-71 peak","25° C., 2 W, argon, dark",98.78 % P.A.R
same,"Purity Measurement Using Reverse Phase HPLC, Other peaks","25° C., 2 W, argon, dark",0.37 % P.A.R
same,"Purity Measurement Using Reverse Phase HPLC, Pre Form peak","25° C., 2 W, argon, dark",0.85 % P.A.R
same,"Purity Measurement Using Reverse Phase HPLC, ED-71 peak","25° C., time 0",99.04 % P.A.R
same,"Purity Measurement Using Reverse Phase HPLC, Other peaks","25° C., time 0",0.60 % P.A.R
